Data: patent US7605272B2, “IGF-1R inhibitor” (Kyowa Hakko Kirin Co., Ltd., priority 2005, dated 2009)
Structures can show the parent of a compound that is named as a salt.

Key:
KMS-11 = assay: Cytostatic activity on human multiple myeloma cell line KMS-11 (WST-1); format: cell-based; settings: Homo sapiens, KMS-11, 72 h, 72 hours; for inhibition at 10 µM: 10 μmol/L, read-out: cytostatic rate (%) KMS-11 (10 μmol/L); for inhibition at 1 µM: 1 μmol/L, read-out: cytostatic rate (%) KMS-11 (1 μmol/L)
Procedure, shortened: (§1)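 Cytostatic rate is 100 minus % growth relative to DMSO-only wells (100%) and blank wells (0%), read by WST-1 absorbance at 450/690 nm after 2 h. Compound at 1 or 10 μmol/L final was applied for 72 h at 37 °C to cells seeded 24 h earlier.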

NCI-H929 = assay: Cytostatic activity on human multiple myeloma cell line NCI-H929 (WST-1); format: cell-based; settings: Homo sapiens, NCI-H929, 72 h, 72 hours; for inhibition at 10 µM: 10 μmol/L, read-out: cytostatic rate (%) H929 (10 μmol/L); for inhibition at 1 µM: 1 μmol/L, read-out: cytostatic rate (%) H929 (1 μmol/L)
Procedure, shortened: as §1

IGF-1R = biological target: T1, IGF-1R (Homo sapiens, UniProt P08069); assay: IGF-1R inhibitory activity (kinase reaction, time-resolved fluoroimmunoassay); format: biochemical; settings: IGF-1R active recombinant enzyme, test compound 10 μmol/L
T1 construct: purchased Upstate Co. 14-465
Procedure, shortened: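 Compounds were tested at a single 10 μmol/L concentration. Each was incubated with recombinant IGF-1R (200 μg/L), 10 mmol/L ATP, MgCl2/MnCl2 and Na3VO4 (pH 7.5) on immobilized poly(Glu-Tyr) peptide for 30 min at 24° C. Eu-anti-phosphotyrosine time-resolved fluorescence (340/615 nm) gave relative activity against no-compound and no-enzyme wells, reported as % inhibition.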

T1 sequence (P08069 959-1367 limits assumed): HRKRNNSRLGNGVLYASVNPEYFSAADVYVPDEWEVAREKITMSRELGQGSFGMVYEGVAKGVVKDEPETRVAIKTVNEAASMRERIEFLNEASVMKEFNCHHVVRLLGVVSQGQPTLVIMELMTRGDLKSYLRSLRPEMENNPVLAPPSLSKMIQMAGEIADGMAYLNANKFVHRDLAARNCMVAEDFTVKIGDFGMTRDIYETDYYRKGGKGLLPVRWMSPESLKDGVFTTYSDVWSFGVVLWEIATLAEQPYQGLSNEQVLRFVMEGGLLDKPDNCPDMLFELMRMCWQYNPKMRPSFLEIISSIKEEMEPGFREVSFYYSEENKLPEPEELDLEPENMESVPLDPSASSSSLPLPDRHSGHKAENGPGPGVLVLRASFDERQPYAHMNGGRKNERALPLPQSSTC

inhibition at 10 µM (IGF-1R)	Structure (SMILES)	inhibition at 10 µM (KMS-11)	inhibition at 10 µM (NCI-H929)	inhibition at 1 µM (KMS-11)	inhibition at 1 µM (NCI-H929)
97.2%	O=C(Nc1nccs1)c1ccccc1/C=C/c1n[nH]c2ccccc12 [Compound 138, (E)-2-[2-(1H-indazol-3-yl)vinyl]-N-(thiazol-2-yl)benzamide]	101%	114%	–	–
92.1%	C(=C\c1n[nH]c2ccccc12)/c1ccccc1OCCc1ccccc1 [Compound 140, (E)-3-{2-[2-(2-phenylethyloxy)phenyl]vinyl}-1H-indazole]	58.9%	104%	–	–
97.1%	O=C(NCc1cccs1)c1ccccc1/C=C/c1n[nH]c2ccccc12 [Compound 141, (E)-2-[2-(1H-indazol-3-yl)vinyl]-N-(thiophen-2-ylmethyl)benzamide]	117%	114%	–	–
92.8%	O=C(Nc1cccnc1)c1ccccc1/C=C/c1n[nH]c2ccccc12 [Compound 142, (E)-2-[2-(1H-indazol-3-yl)vinyl]-N-(pyridin-3-yl)benzamide]	84.9%	104%	–	–
93.4%	O=C(Nc1nncs1)c1ccccc1/C=C/c1n[nH]c2ccccc12 [Compound 145, (E)-2-[2-(1H-indazol-3-yl)vinyl]-N-([1,3,4]thiadiazol-2-yl)benzamide]	116%	126%	–	–
100%	O=C1c2ccccc2C(=O)N1c1cc2c(cc1/C=C/c1n[nH]c3ccccc13)OCO2 [Compound 151, (E)-N-2-{6-[2-(1H-indazol-3-yl)vinyl]benzo[1,3]dioxol-5-yl}isoindole-1,3-dione]	83.2%	104%	–	–
99.5%	Cc1cc(C(=O)Nc2ccccc2/C=C/c2n[nH]c3ccccc23)ccc1N [Compound 158, (E)-4-amino-N-{2-[2-(1H-indazol-3-yl)vinyl]phenyl}-3-methylbenzamide]	108%	113%	–	–
99.9%	O=C1c2ccccc2C(=O)N1c1ccccc1/C=C/c1n[nH]c2ccccc12 [Compound 159, (E)-2-{2-[2-(1H-indazol-3-yl)vinyl]phenyl}isoindole-1,3-dione]	75.5%	104%	–	–
95.9%	NC(=S)Nc1ccccc1/C=C/c1n[nH]c2ccccc12 [Compound 161, (E)-N-{2-[2-(1H-indazol-3-yl)vinyl]phenyl}thiourea]	92.8%	113%	–	–
103%	Cc1ncsc1C(=O)Nc1ccccc1/C=C/c1n[nH]c2ccccc12 [Compound 174, (E)-N-{2-[2-(1H-indazol-3-yl)vinyl]phenyl}-4-methylthiazole-5-carboxamide]	82.6%	109%	–	–
100%	Nc1ccc2c(c1)C(=O)N(c1ccccc1/C=C/c1n[nH]c3ccccc13)C2=O [Compound 193, (E)-5-amino-2-{2-[2-(1H-indazol-3-yl)vinyl]phenyl}isoindole-1,3-dione]	167%	124%	–	–
100%	COC(=O)c1c[nH]c(-c2ccccc2/C=C/c2n[nH]c3ccccc23)n1 [Compound 195, (E)-2-{2-[2-(1H-indazol-3-yl)vinyl]phenyl}-3H-imidazole-4-carboxylic acid methyl ester]	97.7%	111%	–	–
99%	O=C1c2ccccc2CN1c1ccccc1/C=C/c1n[nH]c2ccccc12 [Compound 213, (E)-2-{2-[2-(1H-indazol-3-yl)vinyl]phenyl}-2,3-dihydroisoindole-1-one]	121%	127%	–	–
96.5%	Nc1cccc2c1CN(c1ccccc1/C=C/c1n[nH]c3ccccc13)C2=O [Compound 216, (E)-4-amino-2-{2-[2-(1H-indazol-3-yl)vinyl]phenyl}-2,3-dihydroisoindole-1-one]	90.9%	109%	–	–
98.6%	Cc1ccsc1C(=O)Nc1cc(C(=O)N2CCN(C=O)CC2)ccc1/C=C/c1n[nH]c2ccccc12 [Compound 218, (E)-N-{2-[2-(1H-indazol-3-yl)vinyl]-5-(4-formylpiperazin-1-ylcarbonyl)phenyl}-3-methylthiophene-2-carboxamide hydrochloride]	–	–	106%	112%
99.4%	Cc1ccsc1C(=O)Nc1cc(C(=O)N2CCC(O)CC2)ccc1/C=C/c1n[nH]c2ccccc12 [Compound 219, (E)-N-{2-[2-(1H-indazol-3-yl)vinyl]-5-(4-hydroxypiperidin-1-ylcarbonyl)phenyl}-3-methylthiophene-2-carboxamide hydrochloride]	–	–	108%	111%
99.3%	Cc1ccsc1C(=O)Nc1cc(C(=O)N2CC[C@@H](O)C2)ccc1/C=C/c1n[nH]c2ccccc12 [Compound 220, (E)-(R)—N-{2-[2-(1H-indazol-3-yl)vinyl]-5-(3-hydroxypyrrolidin-1-ylcarbonyl)phenyl}-3-methylthiophene-2-carboxamide hydrochloride]	–	–	97.9%	110%
101%	Cc1ccsc1C(=O)Nc1cc(C(=O)N2C[C@@H](C)O[C@@H](C)C2)ccc1/C=C/c1n[nH]c2ccccc12 [Compound 223, (E)-N-{2-[2-(1H-indazol-3-yl)vinyl]-5-(cis-2,6-dimethylmorpholin-4-ylcarbonyl)phenyl}-3-methylthiophene-2-carboxamide hydrochloride]	–	–	120%	119%
100%	Cc1ccsc1C(=O)Nc1cc(CN2CCOCC2)ccc1/C=C/c1n[nH]c2ccccc12 [Compound 224, (E)-N-{2-[2-(1H-indazol-3-yl)vinyl]-5-(morpholin-4-ylmethyl)phenyl}-3-methylthiophene-2-carboxamide hydrochloride]	–	–	119%	119%
98.9%	Cc1ccsc1C(=O)Nc1ccc(N2CCC(S(C)(=O)=O)CC2)cc1/C=C/c1n[nH]c2ccccc12 [Compound 227, (E)-N-{2-[2-(1H-indazol-3-yl)vinyl]-4-(4-methanesulfonylpiperidin-1-yl)phenyl}-3-methylthiophene-2-carboxamide hydrochloride]	–	–	52.9%	113%
100%	Cc1ccsc1C(=O)Nc1ccc(N2CCN(C)CC2)cc1/C=C/c1n[nH]c2ccccc12 [Compound 228, (E)-N-{2-[2-(1H-indazol-3-yl)vinyl]-4-(4-methylpiperazin-1-yl)phenyl}-3-methylthiophene-2-carboxamide]	–	–	58%	114%
99.3%	Cc1ccsc1C(=O)Nc1cc(C(=O)NCCN(C)C)ccc1/C=C/c1n[nH]c2ccccc12 [Compound 229, (E)-N-{5-[2-(dimethylamino)ethylcarbamoyl]-2-[2-(1H-indazol-3-yl)vinyl]phenyl}-3-methylthiophene-2-carboxamide hydrochloride]	–	–	66.8%	121%
